# Experimental data published in patent US20260224571A1, “AZACYCLOALKANE COMPOUND AND PHARMACEUTICAL COMPOSITION, AND USE THEREOF” (Prime Gene Therapeutics Co., Ltd., priority 2023, published 2026).
# pIC50: −log10 of the molar value.
# Columns and labels:
# [1] = target: ROCK1 (Homo sapiens, UniProt Q13464); experiment: ROCK1 kinase enzymatic activity (HTRF, STK2 substrate); format: biochemical; settings: ROCK1 kinase reacted at room temperature for 20 minutes
# Description: (§1) The kinase activity data was expressed by comparing the kinase activity of the test compound and that of the blank group (containing only DMSO), and the IC50 value was obtained by curve fitting using Prism software (GraphPad7.0).
# [2] = target: ROCK2 (Homo sapiens, UniProt O75116); experiment: ROCK2 kinase enzymatic activity (HTRF, STK2 substrate); format: biochemical; settings: ROCK2 kinase reacted at room temperature for 30 minutes
# Sequence of ROCK2 (O75116 whole entry): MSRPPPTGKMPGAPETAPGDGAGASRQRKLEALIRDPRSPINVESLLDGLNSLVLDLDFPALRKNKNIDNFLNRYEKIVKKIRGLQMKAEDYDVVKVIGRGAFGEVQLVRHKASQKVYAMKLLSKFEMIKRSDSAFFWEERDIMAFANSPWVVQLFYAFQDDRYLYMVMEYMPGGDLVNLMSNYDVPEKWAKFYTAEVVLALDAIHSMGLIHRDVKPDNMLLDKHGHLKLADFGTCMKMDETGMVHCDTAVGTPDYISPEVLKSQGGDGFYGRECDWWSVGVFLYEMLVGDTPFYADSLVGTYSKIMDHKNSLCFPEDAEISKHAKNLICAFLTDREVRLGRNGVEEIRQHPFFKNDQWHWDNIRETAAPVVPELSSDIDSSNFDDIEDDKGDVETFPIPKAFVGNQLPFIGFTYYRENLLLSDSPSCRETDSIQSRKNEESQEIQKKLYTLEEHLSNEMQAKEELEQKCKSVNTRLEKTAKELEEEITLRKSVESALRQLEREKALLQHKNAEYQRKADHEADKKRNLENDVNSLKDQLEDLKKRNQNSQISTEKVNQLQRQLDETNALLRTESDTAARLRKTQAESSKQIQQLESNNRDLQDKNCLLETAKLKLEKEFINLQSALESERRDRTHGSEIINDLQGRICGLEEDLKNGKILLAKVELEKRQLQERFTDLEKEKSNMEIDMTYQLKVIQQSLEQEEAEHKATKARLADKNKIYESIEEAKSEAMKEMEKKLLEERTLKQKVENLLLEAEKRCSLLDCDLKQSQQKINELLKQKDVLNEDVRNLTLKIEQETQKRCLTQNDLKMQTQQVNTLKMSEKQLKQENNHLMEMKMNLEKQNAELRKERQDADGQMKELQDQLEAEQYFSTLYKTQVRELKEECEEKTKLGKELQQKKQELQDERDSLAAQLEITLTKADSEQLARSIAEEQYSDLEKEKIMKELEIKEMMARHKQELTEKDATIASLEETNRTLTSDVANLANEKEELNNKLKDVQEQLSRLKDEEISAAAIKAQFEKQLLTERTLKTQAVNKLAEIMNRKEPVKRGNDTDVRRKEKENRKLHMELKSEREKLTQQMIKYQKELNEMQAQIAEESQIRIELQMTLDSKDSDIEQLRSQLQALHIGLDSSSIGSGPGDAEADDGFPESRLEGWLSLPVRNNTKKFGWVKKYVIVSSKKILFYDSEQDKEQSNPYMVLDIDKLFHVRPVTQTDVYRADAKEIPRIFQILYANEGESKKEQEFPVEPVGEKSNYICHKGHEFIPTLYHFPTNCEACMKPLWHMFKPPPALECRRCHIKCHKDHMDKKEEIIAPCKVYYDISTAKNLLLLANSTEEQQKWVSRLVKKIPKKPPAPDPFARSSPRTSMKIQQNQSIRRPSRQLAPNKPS
# Description: as §1
# Sequence of ROCK1 (Q13464 whole entry): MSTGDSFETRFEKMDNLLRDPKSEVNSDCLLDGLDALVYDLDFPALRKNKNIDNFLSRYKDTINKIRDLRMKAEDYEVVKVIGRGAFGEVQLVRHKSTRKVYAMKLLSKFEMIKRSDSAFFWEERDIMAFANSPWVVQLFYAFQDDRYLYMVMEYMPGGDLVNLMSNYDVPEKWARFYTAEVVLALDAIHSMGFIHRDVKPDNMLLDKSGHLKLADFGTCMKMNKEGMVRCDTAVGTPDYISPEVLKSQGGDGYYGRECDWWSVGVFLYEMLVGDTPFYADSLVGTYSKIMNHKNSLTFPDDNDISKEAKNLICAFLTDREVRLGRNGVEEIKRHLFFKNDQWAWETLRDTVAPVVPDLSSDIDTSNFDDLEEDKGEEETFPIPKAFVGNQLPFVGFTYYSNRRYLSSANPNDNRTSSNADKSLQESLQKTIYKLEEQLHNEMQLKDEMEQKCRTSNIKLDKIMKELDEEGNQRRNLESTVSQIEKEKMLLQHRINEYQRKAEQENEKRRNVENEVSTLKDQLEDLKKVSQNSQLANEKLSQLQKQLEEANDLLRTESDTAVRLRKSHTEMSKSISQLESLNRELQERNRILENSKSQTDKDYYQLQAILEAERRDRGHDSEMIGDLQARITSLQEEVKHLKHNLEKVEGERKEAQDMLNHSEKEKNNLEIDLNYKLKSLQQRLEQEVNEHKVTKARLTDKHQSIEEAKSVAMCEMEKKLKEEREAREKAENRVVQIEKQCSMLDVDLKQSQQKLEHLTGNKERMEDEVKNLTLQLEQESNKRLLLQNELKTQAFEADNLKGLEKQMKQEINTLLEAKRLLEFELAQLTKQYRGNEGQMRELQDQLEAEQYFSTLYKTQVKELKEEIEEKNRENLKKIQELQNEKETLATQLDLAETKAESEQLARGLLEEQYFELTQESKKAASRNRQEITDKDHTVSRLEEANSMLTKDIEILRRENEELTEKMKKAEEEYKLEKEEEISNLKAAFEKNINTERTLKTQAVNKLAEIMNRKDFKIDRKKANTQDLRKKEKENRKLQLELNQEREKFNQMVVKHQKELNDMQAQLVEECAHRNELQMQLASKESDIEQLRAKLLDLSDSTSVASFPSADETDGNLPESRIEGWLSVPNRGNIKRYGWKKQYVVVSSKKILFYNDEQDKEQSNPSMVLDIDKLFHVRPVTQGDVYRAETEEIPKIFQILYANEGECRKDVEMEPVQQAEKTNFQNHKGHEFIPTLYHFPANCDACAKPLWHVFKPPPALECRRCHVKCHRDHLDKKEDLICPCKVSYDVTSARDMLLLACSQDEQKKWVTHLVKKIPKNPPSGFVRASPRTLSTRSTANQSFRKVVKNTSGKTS
pIC50 [1],pIC50 [2],SMILES
> 7.30,> 7.30,"C[C@H](N)C(=O)N1CC(CC#N)(n2cc(-c3ncnc4[nH]ccc34)c(N)n2)C1 [Example 23, 2-(1-alaninyl-3-(3-amino-4-(7H-pyrrolo[2,3-d]pyrimidin-4-yl)-1H-pyrazol-1-yl)azetidine-3-yl)acetonitrile]"
> 8.30,> 8.30,"CCNC(=O)N1CC(CC#N)(n2cc(-c3ncnc4[nH]ccc34)c(N)n2)C1 [Example 14, 3-(3-amino-4-(7H-pyrrolo[2,3-d]pyrimidin-4-yl)-1H-pyrazol-1-yl)-3-(cyanomethyl)-N-ethylazetidine-1-formamide]"
< 7.00,< 7.00,"CS(=O)(=O)N1CC(CC#N)(n2cc(-c3ccnc(NCc4ccccc4)n3)c(N)n2)C1 [Example 79, 2-(3-(3-amino-4-(2-(benzylamino)pyrimidin-4-yl)-1H-pyrazol-1-yl)-1-(methylsulfonyl)azetidine-3-yl)acetonitrile]"
< 7.00,< 7.00,"N#CCC1(n2cc(-c3ncnc4[nH]ccc34)c(C(N)=O)n2)CN(S(=O)(=O)C2CC2)C1 [Example 67, 1-(3-(cyanomethyl)-1-(cyclopropylsulfonyl)azetidine-3-yl)-4-(7H-pyrrolo[2,3-d]pyrimidin-4-yl)-1H-pyrazol-3-formamide]"
< 7.00,< 7.00,"CS(=O)(=O)N1CC(CC#N)(n2cc(-c3cc(NCC4CCOCC4)ncn3)c(N)n2)C1 [Example 76, 2-(3-(3-amino-4-(6-((tetrahydro-2H-pyran-4-yl)methyl)amino)pyrimidin-4-yl-1H-pyrazol-1-yl)-1-(methylsulfonyl)azetidine-3-yl)acetonitrile]"
< 7.00,< 7.00,"CS(=O)(=O)N1CC(CC#N)(n2cc(-c3ncnc(NCCO)n3)c(N)n2)C1 [Example 70, 2-(3-(3-amino-4-(4-((2-hydroxyethyl)amino)-1,3,5-triazin-2-yl)-1H-pyrazol-1-yl)-1-(methylsulfonyl)azetidine-3-yl)acetonitrile]"
> 8.00,> 8.00,"N#CCC1(n2cc(-c3ncnc4[nH]ccc34)c(N)n2)CN(S(=O)(=O)N(CC(F)(F)F)CC(F)(F)F)C1 [Example 43, 3-(3-amino-4-(7H-pyrrolo[2,3-d]pyrimidin-4-yl)-1H-pyrazol-1-yl)-3-(cyanomethyl)-N,N-bis(2,2,2-trifluoroethyl)azetidine-1-sulfonamide]"
> 8.00,> 8.00,"CN(C)S(=O)(=O)N1CC(CC#N)(n2cc(-c3ncnc4[nH]ccc34)c(N)n2)C1 [Example 51, 3-(3-amino-4-(7H-pyrrolo[2,3-d]pyrimidin-4-yl)-1H-pyrazol-1-yl)-3-(cyanomethyl)-N,N-dimethylazetidine-1-sulfonamide]"
> 7.30,> 7.30,"CC(C)NC(=O)N1CC(CC#N)(n2cc(-c3ncnc4[nH]ccc34)c(N)n2)C1 [Example 15, 3-(3-amino-4-(7H-pyrrolo[2,3-d]pyrimidin-4-yl)-1H-pyrazol-1-yl)-3-(cyanomethyl)-N-isopropylaza-1-formamide]"
< 7.00,< 7.00,"N#CCC1(n2cc(-c3ncnc4[nH]ccc34)c(C(N)=O)n2)CN(S(=O)(=O)CC(F)(F)F)C1 [Example 60, 1-(3-(cyanomethyl)-1-((2,2,2-trifluoroethyl)sulfonyl)azetidine-3-yl)-4-(7H-pyrrolo[2,3-d]pyrimidin-4-yl)-1H-pyrazole-3-formamide]"
